Results from patent US20120245184A1 (Aderans Research Institute, Inc., priority 2006, published 2012).
Structures can show the parent of a compound that is named as a salt.

What was measured:
sonic hedgehog pathway [1] = assay: Hedgehog reporter assay (gli-luciferase) in TM3 cells; assay type: cell-based, mouse; settings: TM3 mouse Leydig cells, gli-luciferase reporter; read-out: TM3 Avg. EC50
From the text: (§1) Mouse (TM3: mouse Leydig cells; S12: mouse embryonic mesenchymal cells) and human (Daoy: human medulloblastoma cell; HepM: human embryonic palatal mesenchymal cell) cell lines are used to screen small molecules for their ability to modulate the activity of the sonic hedgehog pathway (Table 1, Table 2, and Table 3). Stable hedgehog pathway reporter cell lines are established by specific antibiotic selection following transfection of a reporter plasmid containing a luciferase gene located directly downstream from the gli promoter. Consequently, any observable changes in cellular luciferase activity may be attributed to changes in sonic hedgehog pathway activity in mouse and human cells, respectively, since gli is the major by-product of this pathway. To calculate activity, we generate an eleven point dose curve for each compound using 1:3 dilutions in 96 well assay plates. Each plate tested also contains low and high control to establish maximal pathway activation so to establish/compare a percentage activation of each tested compound (AMAX) on respective plates.
(§2) Stable hedgehog pathway reporter cell lines are established following specific antibiotic selection following transfection of a reporter plasmid
(§3) In short, typically cells are plated in MicroTiter-plates at 10,000-20,000 cells per well, in growth media (containing 10%-20% FBS). After 48-72 hrs (HGL and DGL respectively) the media in the assay plates is switched to low-serum containing media (0.5% FBS). At that time compounds are added (at 1-5 μM) to the assay plates, in the presence or absence of hedgehog protein (octyl-modified version; 1-5 ng/ml). After another 24 hrs of incubation, the media from the assay plates is discarded and replaced with luciferase assay-mix. Subsequently, plates are incubated at RT for ˜15-30 mins and then read in a luminometer. [note: addition of the Hedgehog protein, although not critical, will sensitize the assay allowing the identification of weak actives].

sonic hedgehog pathway [2] = assay: Hedgehog reporter assay (gli-luciferase) in S12 cells; assay type: cell-based; settings: S12 mouse embryonic mesenchymal cells, read-out: S12 Avg. EC50
From the text: as §1, with “respective plates. Also we calculate EC50 values, or a concentration where the pathway will be exactly 50% activated, for each tested compound to determine potency. In these cell lines, compounds that register >20% AMAX values are considered active.” for “respective plates.”
as §2, §3

sonic hedgehog pathway [3] = assay: Human hedgehog reporter assay HEPM-GliLuc (HGL); assay type: cell-based; settings: HepM human embryonic palatal mesenchymal cells, gli-luciferase reporter; read-out: HEPM Avg. EC50
From the text: as §1, §2, §3

sonic hedgehog pathway [4] = assay: Human hedgehog reporter assay Daoy-GliLuc (DGL); assay type: cell-based; settings: Daoy human medulloblastoma cells, gli-luciferase reporter; read-out: Daoy Avg. EC50
In short: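 Stable gli-luciferase reporter lines (mouse TM3; human Daoy and HEPM) switched to 0.5% FBS medium, given compounds at 1-5 μM with or without octyl-modified hedgehog protein (1-5 ng/ml) for 24 hrs. Luminescence read; eleven-point 1:3 dose curves, activation expressed as percentage of plate controls (AMAX).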

| SMILES | EC50 (sonic hedgehog pathway [1]) | EC50 (sonic hedgehog pathway [4]) | EC50 (sonic hedgehog pathway [2]) | EC50 (sonic hedgehog pathway [3]) |
| --- | --- | --- | --- | --- |
| CNC1CCC(N(Cc2cc(-c3cccnc3)ccc2OC)C(=O)c2sc3cccc(F)c3c2Cl)CC1 (centres unmarked) [360 (R16), 3-Chloro-4-fluoro-benzo[b]thiophene-2-carboxylic acid (2-methoxy-5-pyridin-3-yl-benzyl)-(4-methylamino-cyclohexyl)-amide dihydrochloride] | < 50 nM | < 50 nM | < 50 nM | < 50 nM |
| CN[C@H]1CC[C@H](N(Cc2cc(-c3ccc(N)nc3)ccc2OC)C(=O)c2sc3cccc(F)c3c2Cl)CC1 [362 (R13), 3-Chloro-4-fluoro-benzo[b]thiophene-2-carboxylic acid[5-(6-amino-pyridin-3-yl)-2-methoxy-benzyl]-(4-methylamino-cyclohexyl)-amide dihydrochloride] | < 50 nM | < 50 nM | < 50 nM | < 50 nM |
| CNC1CCC(N(Cc2cc(-c3ccc(C(N)=O)cc3)ccc2OC)C(=O)c2sc3ccccc3c2Cl)CC1 (centres unmarked) [Compound 316, 3-Chloro-benzo[b]thiophene-2-carboxylic acid (4′-carbamoyl-4-methoxy-biphenyl-3-ylmethyl)-(4-methylamino-cyclohexyl)-amide hydrochloride] | < 50 nM | – | < 50 nM | < 50 nM |
| CNC1CCC(N(Cc2cc(-c3ccc(C(=O)N(C)C)cc3)ccc2OC)C(=O)c2sc3ccccc3c2Cl)CC1 (centres unmarked) [Compound 317 (R19), 3-Chloro-benzo[b]thiophene-2-carboxylic acid (4′-dimethylcarbamoyl-4-methoxy-biphenyl-3-ylmethyl)-(4-methylamino-cyclohexyl)-amide hydrochloride] | < 50 nM | – | < 50 nM | < 50 nM |
| CNC1CCC(N(Cc2cc(-c3ccc(N)nc3)ccc2OC)C(=O)c2sc3ccccc3c2Cl)CC1 (centres unmarked) [Compound 319, 3-Chloro-benzo[b]thiophene-2-carboxylic acid [5-(6-aminopyridin-3-yl)-2-methoxy-benzyl]-(4-methylamino-cyclohexyl)-amide dihydrochloride] | < 50 nM | – | < 50 nM | < 50 nM |
| CNC1CCC(N(Cc2cc(-c3ccc(CO)cc3)ccc2OC)C(=O)c2sc3ccccc3c2Cl)CC1 (centres unmarked) [Compound 329, 3-Chloro-benzo[b]thiophene-2-carboxylic acid (4′-hydroxymethyl-4-methoxy-biphenyl-3-ylmethyl)-(4-methylamino-cyclohexyl)-amide hydrochloride] | < 50 nM | – | < 50 nM | < 50 nM |
| CNC1CCC(N(Cc2cc(-c3ccc(C(C)=O)cc3)ccc2OC)C(=O)c2sc3c(F)ccc(F)c3c2Cl)CC1 (centres unmarked) [Compound 332, 3-Chloro-4,7-difluoro-benzo[b]thiophene-2-carboxylic acid (4′-acetyl-4-methoxy-biphenyl-3-ylmethyl)-(4-methylamino-cyclohexyl)-amide hydrochloride] | < 50 nM | < 50 nM | < 50 nM | < 50 nM |
| CNC1CCC(N(Cc2cc(-c3ccc(C(=O)N(C)C)cc3)ccc2OC)C(=O)c2sc3c(F)ccc(F)c3c2Cl)CC1 (centres unmarked) [Compound 333, 3-Chloro-4,7-difluoro-benzo[b]thiophene-2-carboxylic acid (4′-dimethylcarbamoyl-4-methoxy-biphenyl-3-ylmethyl)-(4-methylamino-cyclohexyl)-amide hydrochloride] | < 50 nM | < 50 nM | < 50 nM | < 50 nM |
| CC[C@H]1CC[C@@H](N(Cc2cc(-c3ccc(C)cc3)ccc2OC)C(=O)C2=C(C)c3c(C)ccc(C)c3C2)CC1 [Compound 334, 3-Chloro-4,7-difluoro-benzo[b]thiophene-2-carboxylic acid[2-methoxy-5-(6-methyl-pyridin-3-yl)-benzyl]-(4-methylamino-cyclohexyl)-amide bis(trifluoroacetate)] | < 50 nM | < 50 nM | < 50 nM | < 50 nM |
| CN[C@H]1CC[C@@H](N(Cc2cc(-c3ccc(S(C)(=O)=O)cc3)ccc2OC)C(=O)C2=C(Cl)c3c(C)ccc(C)c3C2)CC1 [Compound 335, 3-Chloro-4,7-difluoro-benzo[b]thiophene-2-carboxylic acid(4′-methanesulfonyl-4-methoxy-biphenyl-3-ylmethyl)-(4-methylamino-cyclohexyl)-amide hydrochloride] | < 50 nM | < 50 nM | < 50 nM | < 50 nM |
| CN[C@H]1CC[C@@H](N(Cc2cc(-c3ccc(N(C)C(C)=O)cc3)ccc2OC)C(=O)c2sc3c(C)ccc(C)c3c2C)CC1 [Compound 336, 3-Chloro-4,7-difluoro-benzo[b]thiophene-2-carboxylic acid[4′-(acetyl-methyl-amino)-4-methoxy-biphenyl-3-ylmethyl]-(4-methylamino-cyclohexyl)-amide hydrochloride] | < 50 nM | < 50 nM | < 50 nM | < 50 nM |

More lines, main results first:

| EC50 (sonic hedgehog pathway [1]) | EC50 (sonic hedgehog pathway [4]) | SMILES | EC50 (sonic hedgehog pathway [2]) | EC50 (sonic hedgehog pathway [3]) |
| --- | --- | --- | --- | --- |
| < 50 nM | < 50 nM | CN[C@H]1CC[C@@H](N(Cc2cc(-c3ccc(CO)cc3)ccc2OC)C(=O)c2sc3c(C)ccc(C)c3c2Cl)CC1 [Compound 338, 3-Chloro-4,7-difluoro-benzo[b]thiophene-2-carboxylic acid(4′-hydroxymethyl-4-methoxy-biphenyl-3-ylmethyl)-(4-methylamino-cyclohexyl)-amide trifluoroacetate] | < 50 nM | < 50 nM |
| < 50 nM | – | CN[C@H]1CC[C@@H](N(Cc2cc(-c3ccnc(C)c3)ccc2OC)C(=O)C2=C(Cl)c3c(C)ccc(F)c3C2)CC1 [Compound 355] | < 50 nM | < 50 nM |
| – | < 50 nM | CNC1CCC(N(Cc2cc(-c3ccncc3)ccc2O)C(=O)c2sc3c(F)ccc(F)c3c2Cl)CC1 (centres unmarked) [Compound 368, 3-Chloro-4,7-difluoro-benzo[b]thiophene-2-carboxylic acid (2-hydroxy-5-pyridin-4-yl-benzyl)-(4-methylamino-cyclohexyl)-amide dihydrochloride] | < 50 nM | < 50 nM |
| – | 250 to 1000 nM | CNC1CCC(N(Cc2cc(-c3ccccc3SC)ccc2OC)C(=O)c2sc3c(F)ccc(F)c3c2Cl)CC1 (centres unmarked) [Compound 408, 3-Chloro-4,7-difluoro-benzo[b]thiophene-2-carboxylic acid (4-methoxy-2′-methylsulfanyl-biphenyl-3-ylmethyl)-(4-methylamino-cyclohexyl)-amide hydrochloride] | 250 to 1000 nM | – |
| – | < 50 nM | COc1ccc(-c2cccnc2)cc1CN(C(=O)c1sc2cccc(F)c2c1Cl)[C@H]1CC[C@H](N)CC1 [Compound 410, 3-Chloro-4-fluoro-benzo[b]thiophene-2-carboxylic acid(4-amino-cyclohexyl)-(2-methoxy-5-pyridin-3-yl-benzyl)-amide] | < 50 nM | – |
| – | 50 to 250 nM | COc1ccc(-c2cncc(F)c2)cc1CN(C(=O)c1sc2c(F)ccc(F)c2c1Cl)[C@H]1CC[C@H](N)CC1 [Compound 416] | < 50 nM | – |
| < 50 nM | – | CNC1CCC(N(Cc2cc(-c3ccc(NS(C)(=O)=O)nc3)ccc2OC)C(=O)c2sc3c(F)ccc(F)c3c2Cl)CC1 (centres unmarked) [Compound R10, 3-Chloro-4,7-difluoro-benzo[b]thiophene-2-carboxylic acid[5-(6-methanesulfonylamino-pyridin-3-yl)-2-methoxy-benzyl]-(4-methylamino-cyclohexyl)-amide dihydrochloride] | < 50 nM | < 50 nM |
